Measured values taken from ChEMBL document CHEMBL4011590, “Structure-activity relationship studies on 3,5-dinitrophenyl tetrazoles as antitubercular agents” (Eur J Med Chem, 2017).

Columns and labels:
Enterococcus sp. [1] = experiment: Antibacterial activity against Enterococcus sp. HK14365/08 after 48 hrs by broth microdilution method; assay type: functional; conditions: HK14365/08, 48 h
Trichosporon asahii [2] = experiment: Antifungal activity against Trichosporon asahii 1188 after 24 hrs by broth microdilution method; assay type: functional; conditions: Trichosporon asahii, 1188, 24 h
Nakaseomyces glabratus [3] = experiment: Antifungal activity against Candida glabrata 20/I after 24 hrs by broth microdilution method; assay type: functional
Candida tropicalis [4] = experiment: Antifungal activity against Candida tropicalis 156 after 24 hrs by broth microdilution method; assay type: functional; conditions: Candida tropicalis, 156, 24 h
Pichia kudriavzevii [5] = experiment: Antifungal activity against Candida krusei E28 after 24 hrs by broth microdilution method; assay type: functional; conditions: E28, 24 h
CHO-K1 = experiment: Cytotoxicity against CHOK1 cells after 24 hrs by MTT assay; assay type: cell-based; conditions: Cricetulus griseus, CHO-K1, 24 h
Aspergillus fumigatus [6] = experiment: Antifungal activity against Aspergillus fumigatus 231 after 48 hrs by broth microdilution method; assay type: functional; conditions: Aspergillus fumigatus, 231, 48 h
Klebsiella pneumoniae [7] = experiment: Antibacterial activity against extended spectrum beta-lactamase producing Klebsiella pneumoniae HK14368/08 after 24 hrs by broth microdilution method; assay type: functional; conditions: HK14368/08, 24 h
Mycobacterium kansasii [8] = experiment: Antimycobacterial activity against Mycobacterium kansasii CNCTC My 235/80 after 21 days by micromethod; assay type: functional; conditions: CNCTC My 235/80, 504 h
Pseudomonas aeruginosa [9] = experiment: Antibacterial activity against Pseudomonas aeruginosa ATCC 9027 after 24 hrs by broth microdilution method; assay type: functional; conditions: ATCC 9027, 24 h
Mycobacterium kansasii [10] = experiment: Antimycobacterial activity against Mycobacterium kansasii isolate 6509/96 after 21 days by micromethod; assay type: functional; conditions: isolate 6509/96, 504 h
Staphylococcus aureus [11] = experiment: Antibacterial activity against methicillin-resistant Staphylococcus aureus HK5996/08 after 48 hrs by broth microdilution method; assay type: functional; conditions: HK5996/08, 48 h
Mycobacterium avium [12] = experiment: Antimycobacterial activity against Mycobacterium avium CNCTC My 330/80 after 21 days by micromethod; assay type: functional; conditions: CNCTC My 330/80, 504 h
Staphylococcus aureus [13] = experiment: Antibacterial activity against methicillin-resistant Staphylococcus aureus HK5996/08 after 24 hrs by broth microdilution method; assay type: functional; conditions: HK5996/08, 24 h
[14] = tested on: Trichophyton mentagrophytes; experiment: Antifungal activity against Trichophyton mentagrophytes 445 after 72 hrs by broth microdilution method; assay type: functional; conditions: Trichophyton mentagrophytes, 445, 72 h
Candida albicans [15] = experiment: Antifungal activity against Candida albicans ATCC 44859 after 24 hrs by broth microdilution method; assay type: functional; conditions: ATCC 44859, 24 h
Lichtheimia corymbifera [16] = experiment: Antifungal activity against Absidia corymbifera 272 after 48 hrs by broth microdilution method; assay type: functional; conditions: Lichtheimia corymbifera, 272, 48 h
Staphylococcus aureus [17] = experiment: Antibacterial activity against Staphylococcus aureus ATCC 6538 after 24 hrs by broth microdilution method; assay type: functional; conditions: ATCC 6538, 24 h
Aspergillus fumigatus [18] = experiment: Antifungal activity against Aspergillus fumigatus 231 after 24 hrs by broth microdilution method; assay type: functional; conditions: Aspergillus fumigatus, 231, 24 h
Escherichia coli [19] = experiment: Antibacterial activity against Escherichia coli ATCC 8739 after 24 hrs by broth microdilution method; assay type: functional; conditions: ATCC 8739, 24 h
Pichia kudriavzevii [20] = experiment: Antifungal activity against Candida krusei E28 after 48 hrs by broth microdilution method; assay type: functional; conditions: E28, 48 h
Mycobacterium kansasii [21] = experiment: Antimycobacterial activity against Mycobacterium kansasii isolate 6509/96 after 7 days by micromethod; assay type: functional; conditions: isolate 6509/96, 168 h
Escherichia coli [22] = experiment: Antibacterial activity against Escherichia coli ATCC 8739 after 48 hrs by broth microdilution method; assay type: functional; conditions: ATCC 8739, 48 h
[23] = tested on: Staphylococcus epidermidis; experiment: Antibacterial activity against Staphylococcus epidermidis HK6966/08 after 24 hrs by broth microdilution method; assay type: functional; conditions: HK6966/08, 24 h
Lichtheimia corymbifera [24] = experiment: Antifungal activity against Absidia corymbifera 272 after 24 hrs by broth microdilution method; assay type: functional; conditions: Lichtheimia corymbifera, 272, 24 h
Pseudomonas aeruginosa [25] = experiment: Antibacterial activity against Pseudomonas aeruginosa ATCC 9027 after 48 hrs by broth microdilution method; assay type: functional; conditions: ATCC 9027, 48 h
[26] = tested on: Mycobacterium tuberculosis; experiment: Antimycobacterial activity against Mycobacterium tuberculosis H37Rv CNCTC My 331/88 after 14 days by micromethod; assay type: functional; conditions: H37Rv CNCTC My 331/88, 336 h
Candida tropicalis [27] = experiment: Antifungal activity against Candida tropicalis 156 after 48 hrs by broth microdilution method; assay type: functional; conditions: Candida tropicalis, 156, 48 h
Mycobacterium kansasii [28] = experiment: Antimycobacterial activity against Mycobacterium kansasii isolate 6509/96 after 14 days by micromethod; assay type: functional; conditions: isolate 6509/96, 336 h
Mycobacterium kansasii [29] = experiment: Antimycobacterial activity against Mycobacterium kansasii CNCTC My 235/80 after 7 days by micromethod; assay type: functional; conditions: CNCTC My 235/80, 168 h
Klebsiella pneumoniae [30] = experiment: Antibacterial activity against extended spectrum beta-lactamase producing Klebsiella pneumoniae HK14368/08 after 48 hrs by broth microdilution method; assay type: functional; conditions: HK14368/08, 48 h
Klebsiella pneumoniae [31] = experiment: Antibacterial activity against Klebsiella pneumoniae HK11750/08 after 24 hrs by broth microdilution method; assay type: functional; conditions: HK11750/08, 24 h
Candida albicans [32] = experiment: Antifungal activity against Candida albicans ATCC 44859 after 48 hrs by broth microdilution method; assay type: functional; conditions: ATCC 44859, 48 h
Mycobacterium avium [33] = experiment: Antimycobacterial activity against Mycobacterium avium CNCTC My 330/80 after 14 days by micromethod; assay type: functional; conditions: CNCTC My 330/80, 336 h
Mycobacterium kansasii [34] = experiment: Antimycobacterial activity against Mycobacterium kansasii CNCTC My 235/80 after 14 days by micromethod; assay type: functional; conditions: CNCTC My 235/80, 336 h
Enterococcus sp. [35] = experiment: Antibacterial activity against Enterococcus sp. HK14365/08 after 24 hrs by broth microdilution method; assay type: functional; conditions: HK14365/08, 24 h
[36] = tested on: Trichophyton mentagrophytes; experiment: Antifungal activity against Trichophyton mentagrophytes 445 after 120 hrs by broth microdilution method; assay type: functional; conditions: Trichophyton mentagrophytes, 445, 120 h
[37] = tested on: Staphylococcus epidermidis; experiment: Antibacterial activity against Staphylococcus epidermidis HK6966/08 after 48 hrs by broth microdilution method; assay type: functional; conditions: HK6966/08, 48 h
Trichosporon asahii [38] = experiment: Antifungal activity against Trichosporon asahii 1188 after 48 hrs by broth microdilution method; assay type: functional; conditions: Trichosporon asahii, 1188, 48 h
Staphylococcus aureus [39] = experiment: Antibacterial activity against Staphylococcus aureus ATCC 6538 after 48 hrs by broth microdilution method; assay type: functional; conditions: ATCC 6538, 48 h
[40] = tested on: Mycobacterium tuberculosis; experiment: Antimycobacterial activity against Mycobacterium tuberculosis H37Rv CNCTC My 331/88 after 21 days by micromethod; assay type: functional; conditions: H37Rv CNCTC My 331/88, 504 h
Nakaseomyces glabratus [41] = experiment: Antifungal activity against Candida glabrata 20/I after 48 hrs by broth microdilution method; assay type: functional
Klebsiella pneumoniae [42] = experiment: Antibacterial activity against Klebsiella pneumoniae HK11750/08 after 48 hrs by broth microdilution method; assay type: functional; conditions: HK11750/08, 48 h

O=[N+]([O-])c1cc(-c2nnnn2Cc2ccccc2)cc([N+](=O)[O-])c1
2 µM: MIC99 (Mycobacterium kansasii [21]) | MIC99 [26] | MIC99 [40]
> 500 µM: MIC (Aspergillus fumigatus [6]) | MIC (Aspergillus fumigatus [18])
16 µM: MIC99 (Mycobacterium avium [33])
250 µM: MIC (Trichosporon asahii [2]) | MIC (Nakaseomyces glabratus [3]) | MIC (Candida tropicalis [4]) | MIC (Pichia kudriavzevii [5]) | MIC (Klebsiella pneumoniae [7]) | MIC (Pichia kudriavzevii [20]) | MIC (Candida tropicalis [27]) | MIC (Klebsiella pneumoniae [31]) | MIC (Trichosporon asahii [38]) | MIC (Nakaseomyces glabratus [41])
500 µM: MIC (Pseudomonas aeruginosa [9]) | MIC [14] | MIC (Lichtheimia corymbifera [16]) | MIC (Lichtheimia corymbifera [24]) | MIC (Pseudomonas aeruginosa [25]) | MIC [36]
62.5 µM: MIC (Enterococcus sp. [1]) | MIC (Candida albicans [15]) | MIC (Staphylococcus aureus [17]) | MIC (Escherichia coli [22]) | MIC [23] | MIC (Candida albicans [32]) | MIC (Enterococcus sp. [35]) | MIC [37] | MIC (Staphylococcus aureus [39])
8 µM: MIC99 (Mycobacterium kansasii [8]) | MIC99 (Mycobacterium kansasii [29]) | MIC99 (Mycobacterium kansasii [34])
4 µM: MIC99 (Mycobacterium kansasii [10]) | MIC99 (Mycobacterium kansasii [28])
32 µM: MIC99 (Mycobacterium avium [12])
15.6 µM: MIC (Staphylococcus aureus [11])
31.2 µM: MIC (Staphylococcus aureus [13])
18 µM: IC50 (CHO-K1)
125 µM: MIC (Escherichia coli [19]) | MIC (Klebsiella pneumoniae [30]) | MIC (Klebsiella pneumoniae [42])
